Assay results taken from patent publication US20260007680A1, “Compounds and Their Use as PDE4 Activators” (Mironid Limited, priority 2022, published 2026).

Target: T1, PDE4D5 (Homo sapiens, UniProt Q08499)
T1 construct: Using Full-Length Human PDE4 Isoforms; Long Forms PDE4D5, PDE4C3, PDE4B1 and Short Form PDE4B2; made in house; cytosol fraction of cell lysate
Experiment: PDE assay, activation of PDE4D5 long form (Experiment 1)
Format: biochemical
Settings: for activation at 100 µM: 100 μM test compound, mean % increase in counts over basal activity
Procedure: One suitable method of detecting whether or not a compound is capable of serving as an activator of a PDE4 long form is using a two-step radio-assay procedure described in Experiment 1. In summary, the method involves incubating a PDE4 long form with a test small molecule activator, together with [^3H]-labelled cAMP to assess alterations in the breakdown of cAMP to the 5′-adenosine monophosphate (5′-AMP) product. A sample of the reaction mixture from such an incubation is subsequently treated with snake venom 5′-nucleotidase to allow conversion of the nucleotide [^3H]-labelled 5′-AMP to the uncharged nucleoside [^3H]-labelled adenosine, which can be separated and quantified to assess PDE4 activity and the effect of the test compound (Thompson, W. J. and Appleman, M. M. Biochemistry 10: 311-316, 1971, with some modifications as described in: Marchmont, R. J. and Houslay, M. D. Biochem J. 187: 381-92, 1980).
Experiment 1: Measurement of Modulation of Enzyme Activity by PDE4 Long Form Activators of the Present Invention Using Full-Length Human PDE4 Isoforms; Long Forms PDE4D5, PDE4C3, PDE4B1 and Short Form PDE4B2 • (Marchmont, R. J. and Houslay, M. D. Biochem. J. 187: 381-92, 1980)
For transient transfection of exogenous PDE4 long isoforms, HEK 293 cells were transfected with pcDNA3.1 or pDEST^TM PDE4 expression vectors using Lipofectamine LTX/Plus reagent (Invitrogen) as outlined by the manufacturer.
Where stable cell lines were generated the clonal isolates were expanded to obtain cell lines that stably expressed the full-length human PDE4 long isoforms and the full length human PDE4B2 short isoform. These were called the HEK-PDE4D5, HEK-PDE4B1 and HEK-PDE4B2 cell lines, respectively.
HEK-PDE4D5 cells were seeded out in 100 mm plates and incubated at 37° C. in an atmosphere of 5% CO2, 95% air. Cell lysates were prepared using KHEM buffer [50 mM KCl, 10 mM EGTA, 50 mM HEPES (pH 7.2), 1.92 mM MgCl2].
To prepare the cell lysates, the 100 mm plates containing the cells were placed on ice and washed with ice-cold PBS (phosphate buffered saline, pH 7.4). KHEM buffer (500 μL) was added to the cells. Cells were then scraped off the plate and triturated using a needle (BD Microlance™ 0.8, 40 mm). The lysed cells were then centrifuged at 2000 rpm for 10 minutes to remove cell debris and the supernatant (cell lysate containing recombinant PDE4D5) was transferred to a fresh tube and kept on ice.
The cell lysate containing recombinant PDE4D5 was transferred into a centrifuge tube and placed into an ultracentrifuge (BECKMAN COULTER) and spun at high speed (100,000 g) for 30 minutes at 4° C. The cytosol fraction was then collected and its protein amount determined using a BCA protein assay.
PDE assays were performed in thin walled V-bottomed 96-well plates. The assays were performed at a final concentration of 10 mM Tris/5 mM MgCl2 plus PDE4D5 cell lysate cytosol fraction, containing over-expressed PDE4D5, with and without test compound. The lysate/compound mix were incubated together for 15 min at room temperature on an orbital shaker prior to addition of [^3H] cAMP (final concentration 1 μM [^3H] cAMP; Perkin Elmer) to a final volume of 50 μL per reaction. The reactions were then incubated for 10 minutes at 30° C., terminated by heating for 2 min at 95° C. and allowed to cool. Snake venom (12.5 μL of 1 mg/mL; Crotalus atrox, Sigma) was then added and the plates were agitated and incubated for a further 15 minutes at 30° C. Dowex ion exchange resin (Sigma, chloride form, 200-400 mesh; 200 μL; prepared as a 1:1 Dowex:water stock, thoroughly re-suspended and diluted 2:1 with ethanol) was then added to each well and the plates incubated for 15 min at room temperature on an orbital shaker ensuring sufficient agitation for resin suspension (550 RPM). The reaction mixture was then transferred to a 96 well filter plate (Millipore; 0.45 μm pore size) and filtered into a receiving 96-well plate to remove the dowex suspension. […]

T1 sequence (Q08499 1-745 isoform Q08499-6): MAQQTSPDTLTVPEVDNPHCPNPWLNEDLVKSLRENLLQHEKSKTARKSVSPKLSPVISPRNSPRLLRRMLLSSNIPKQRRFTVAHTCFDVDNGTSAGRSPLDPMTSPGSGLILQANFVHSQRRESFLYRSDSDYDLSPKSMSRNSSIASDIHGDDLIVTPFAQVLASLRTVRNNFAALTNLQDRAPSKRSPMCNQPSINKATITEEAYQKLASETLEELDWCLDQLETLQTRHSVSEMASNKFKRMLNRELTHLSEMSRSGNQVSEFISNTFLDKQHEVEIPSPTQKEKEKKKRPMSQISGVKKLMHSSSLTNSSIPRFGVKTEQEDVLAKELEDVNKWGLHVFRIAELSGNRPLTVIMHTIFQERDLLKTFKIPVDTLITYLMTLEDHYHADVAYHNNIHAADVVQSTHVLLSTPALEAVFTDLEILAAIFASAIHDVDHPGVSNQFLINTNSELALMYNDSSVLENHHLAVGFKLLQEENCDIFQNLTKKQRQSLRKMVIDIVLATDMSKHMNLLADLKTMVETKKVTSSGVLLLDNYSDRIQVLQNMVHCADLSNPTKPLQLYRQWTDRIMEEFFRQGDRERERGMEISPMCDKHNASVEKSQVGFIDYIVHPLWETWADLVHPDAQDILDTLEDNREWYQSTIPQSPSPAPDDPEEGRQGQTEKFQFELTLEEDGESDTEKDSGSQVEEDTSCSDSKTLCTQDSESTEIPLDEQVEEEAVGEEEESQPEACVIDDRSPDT

Cc1ccc(-c2nc3cc(C(=O)N[C@H]4CCOc5ccccc54)ccc3[nH]2)cn1 [Example 2, (S)—N-(chroman-4-yl)-2-(6-methylpyridin-3-yl)-1H-benzo[d]imidazole-5-carboxamide]
activation at 100 µM: 115%

Cc1cncc(-c2nc3cc(C(=O)N[C@H]4CCOc5ccccc54)ccc3[nH]2)c1 [Example 4, (S)—N-(chroman-4-yl)-2-(5-methylpyridin-3-yl)-1H-benzo[d]imidazole-5-carboxamide]
activation at 100 µM: 140% | activation of PDE4D5 (FIG. 1) (concentration-response): concentration-dependent activation

Cc1cncc(-c2nc3ccc(C(=O)N[C@H]4CCOc5ccccc54)cc3n2C)c1 [Example 28, (S)—N-(chroman-4-yl)-1-methyl-2-(5-methylpyridin-3-yl)-1H-benzo[d]imidazole-6-carboxamide]
activation at 100 µM: 45%

Cc1ccncc1-c1nc2cc(C(=O)N[C@H]3CCOc4ccccc43)ccn2n1 [Example 53, (S)—N-(chroman-4-yl)-2-(4-methylpyridin-3-yl)-[1,2,4]triazolo[1,5-a]pyridine-7-carboxamide]
activation at 100 µM: 33%
